Assay results taken from US20050232891A1, “Methods of treating skin with diphosphonate derivatives” (ILEX Products Inc., priority 2001, published 2005).
Like-named read-outs stand apart in the source and are kept apart here.

Key:
HepG2 cells = assay: Stimulation of collagen expression (cDNA microarray), Apomine treated versus control HepG2 cells; assay type: cell-based, human; conditions: gene expression; for fold induction at 1 µM: Homo sapiens, HepG2, 1 μM Apomine vs ethanol vehicle control
Method: HepG2 cells were grown in Dulbecco's modified Eagle medium (DMEM) supplemented with 10% FBS. Cells were harvested when they were about 80-90% confluent and were directly subjected to RNA isolation. Treated cells were incubated with 1 μM Apomine and control cells were incubated with a volume of ethanol used as vehicle for the Apomine.
DNA microarray slides used in this study were fabricated in the microarray core facilities at the Arizona Cancer Center (Calaluce et al., 2001). Each slide has 5760 spots divided into 4 blocks. Each block contains the same 8 ice plant genes from Mesembryanthemum crystallinum and 23 different housekeeping genes as references for data normalization. Overall, each slide has 5289 unique human cDNA sequences.
Poly(A)^+ RNA was directly isolated from cell pellets using the FastTrack 2.0 Kit (Invitrogen, Carsbad, Calif.) following the instruction manual provided by the manufacturer. Each RNA sample was inspected by denaturing agarose gel electrophoresis to ensure the quality of the preparation. Labeling and purification of cDNA probes were carried out using the MICROMAX direct cDNA microarray system (NEN Life Science Products, Boston, Mass.). Two to four micrograms of the poly(A)+ RNA samples were used for each labeling. Probes for Apomine treated HepG2 cells were labeled with Cyanine 5 (Cy5) and probes for HeLa cell was labeled with Cyanine 3 (Cy3). For investigation of control Hep2G cells, these cells were labeled with Cy3 and probes for HeLa cells were labeled with Cy5. Purified cDNA probes were dried and dissolved in 15 μL of Hybridization Buffer (included in the MICROMAX direct cDNA microarray system kit). The probes were then denatured by heating at 95° C. for 2 min and applied to the array area of a pre-denatured microarray slide. The microarray slide was covered with a […] slide cover slip and incubated in a HybChamber (GeneMachines, San Carlos, Calif.) at 62° C. for overnight. On the second day, the slide was washed in 0.5×SSC, 0.01% SDS for 5 min, 0.06×SSC, 0.01% SDS for 5 min, and 0.06×SCC for 2 min. Finally, the slide was dried by spinning at 500 g for 1 min and scanned in a dual-laser (635 nm for red fluorescent Cy5 and 532 nM for green fluorescent Cy3) microarray scanner (GenePix 4000, Axon Instruments, Foster City, Calif.).
Fluorescence intensities for both dyes (Cy3 and Cy5) and local background subtracted values for individual spots were obtained using the GenePix 4000 microarray scanner and accompanying software (Axon Instruments, Foster City, Calif.). The data were imported into Microsoft Excel spreadsheets for analysis. Defective spots, i.e., ones that are sub-standard on the scanned image or have negative background subtracted values, were first filtered. To minimize the effects of measurement variations introduced by artificial sources during experiments, only spots that had significant signals in both channels were included. The determination of this significance is based on signal intensities of non-homologous ice plant genes. Generally, if the signal intensity of a spot is less than the average of ice plant spots, the signal was considered as non-significant. In this analysis the significance cutoff for signal to background ratio as 1.4 was determined empirically. Thus, a spot was excluded in further analysis if it has a signal to background ratio less than 1.4 in both channels. For each spot, the median of ratios (the median of the pixel-by-pixel ratios of pixel intensities that have the median background intensity subtracted) was used in subsequent analysis. Spots representing housekeeping genes were used to normalize the entire slide so that all slides can be compared directly. For each pancreatic cell line, at least two hybridizations were carried out. The average of median ratios from replicates was calculated for each spot. […]

[1] = patients, 75 mg/m^2 twice a day orally for 14 days; cited from earlier work
[2] = Percutaneous absorption of Apomine: plasma level after topical application; assay type: in vivo, female Swiss nude (nu/nu) mice; conditions: female, Swiss nude (nu/nu), mouse, three hours after the last application
Method: Plasma concentrations of Apomine are measured with a Hewlett Packard gas chromatograph using a nitrogen phosphorus detector and HP-5 15 m×0.32 mm column. Alberts et al., 2001). Apomine is extracted from plasma with methyl t-butyl ether (MTBE). To 250 μl of plasma sample, 10 μl of a methanolic solution of the internal standard (n-propyl phoposhonate analog of Apomine) at a final concentration of 4 μg/ml are added and mixed by vortexing. The compound and internal standard are extracted with 500 μl MTBE and 30 sec vigorous shaking. The organic layer obtained by centrifugation (5 min at 13,000 rpm) is dried under nitrogen and reconstituted in 250 μl MTBE of which 2 μl is injected with an autoampler for analysis. A calibration curve is established with plasma from untreated mice spiked with different concentrations of Apomine. The calibration curve is used to interpolate the concentrations of Apomine in the samples using the peak area ratio values.
Apomine (1 mg) was topically applied to five to six week old female Swiss nude (nu/nu) mice by application of 20 μl of a 50 mg/ml solution of Apomine in acetone. Treatment was continued daily for 24 days. Three hours after the last application the mice were sacrificed and plasma Apomine levels were measured. The plasma concentration was 1.12±0.10 μg/ml plasma (n=6), which is 2 μM Apomine. […]

SMILES: CC(C)OP(=O)(OC(C)C)C(Cc1cc(C(C)(C)C)c(O)c(C(C)(C)C)c1)P(=O)(OC(C)C)OC(C)C [Apomine, tetraisopropyl 2-(3,5-di-tert-butyl-4-hydroxyphenyl)-ethylidene-1,1-diphosphonate]
- Fold induction, Procollagen, type III (HepG2 cells; 1 μM Apomine vs ethanol vehicle control): 6.49 fold
- fold induction at 1 µM (HepG2 cells; read-out: Fold induction, Collagen, type I, alpha 2): 1.65
- fold induction at 1 µM (HepG2 cells; read-out: Fold induction, Collagen, type II, alpha 1): 5.5
- fold induction at 1 µM (HepG2 cells; read-out: Fold induction, Collagen, type IV, alpha 4): 1.7
- fold induction at 1 µM (HepG2 cells; read-out: Fold induction, Collagen, type IX, alpha 3): 1.4
- fold induction at 1 µM (HepG2 cells; read-out: Fold induction, Collagen, type V, alpha 1): 1.42
- fold induction at 1 µM (HepG2 cells; read-out: Fold induction, Collagen, type VI, alpha 2): 2.4
- fold induction at 1 µM (HepG2 cells; read-out: Fold induction, Collagen, type VI, alpha 3): 1.16
- fold induction at 1 µM (HepG2 cells; read-out: Fold induction, Collagen, type XI, alpha 1): 2.66
- fold induction at 1 µM (HepG2 cells; read-out: Fold induction, Procollagen, type III): > 6
- adverse effects [1]: no adverse effects
- concentration at 3 h ([2]; 1 mg topically (20 μl of 50 mg/ml in acetone) daily for 24 days, n=6): 1120 ± 100 ng/mL
- concentration at 3 h ([2]; 1 mg topically daily for 24 days): 2000 nM
